According to publication PMC3676669 (Journal of inorganic biochemistry, 2012):

The compounds below were run against T1, 20S proteasome, chymotrypsin-like activity (β5 subunit) (Oryctolagus cuniculus, UniProt G1T4Q9) (assay: fluorogenic Suc-LLVY-AMC hydrolysis by purified […] proteasome, […] h).
T1 sequence (G1T4Q9 1-263): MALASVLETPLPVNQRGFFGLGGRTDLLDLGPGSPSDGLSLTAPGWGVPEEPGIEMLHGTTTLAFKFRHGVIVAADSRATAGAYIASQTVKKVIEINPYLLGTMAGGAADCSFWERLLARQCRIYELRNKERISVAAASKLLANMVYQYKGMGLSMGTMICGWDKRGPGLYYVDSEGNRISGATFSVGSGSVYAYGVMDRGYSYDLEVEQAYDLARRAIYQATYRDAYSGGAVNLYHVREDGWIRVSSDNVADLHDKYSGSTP
Assay type: biochemical
For CC(C)[C@H]1C(=O)[O][Cu-3]23([O]c4ccc5ccccc5c4C=[N+]12)[n+]1cccc2ccc4ccc[n+]3c4c21 [C3, [Cu(L2)(Phen)]·3H2O], the IC50 was 11.3 µM. COc1cccc2c1[O][Cu-3]13([O]C(=O)[C@H](CCSC)[N+]1=C2)[n+]1ccccc1-c1cccc[n+]13 [C2, [Cu(L1)(Bpy)]·3H2O] showed an IC50 of 46.5 µM. In the case of COc1cccc2c1[O][Cu-3]13([O]C(=O)C(CCSC)[N+]1=C2)[n+]1cccc2ccc4ccc[n+]3c4c21 (stereo not shown) [C1, [Cu(L1)(Phen)]·9H2O], the IC50 is reported as 13.3 µM. In the case of CC(C)[C@H]1C(=O)[O][Cu-3]23([O]c4ccc5ccccc5c4C=[N+]12)[n+]1ccccc1-c1cccc[n+]13 [C4, [Cu(L2)(Bpy)]·3H2O], the IC50 is reported as 42.5 µM.
